Assay results published in ChEMBL document CHEMBL3860092, “Recent progress on the discovery of antiamoebic agents” (Bioorg Med Chem Lett, 2016).

How the values were obtained:
[1] = Cytotoxicity against mouse Melan-a cells assessed as reduction in cell viability after 48 hrs by MTT assay; type: toxicity
Entamoeba histolytica = assay: Antiamoebic activity against Entamoeba histolytica HM-1:IMSS trophozoites after 72 hrs by microdilution method; type: functional

Row | SMILES | IC50 at 48 h [1] | IC50 (Entamoeba histolytica)
1 | Cc1ncc([N+](=O)[O-])n1CCOC(=O)Nc1ccc(OCc2cccc(Cl)c2)cc1 | > 50 µM | 150 nM
2 | Cc1ncc([N+](=O)[O-])n1CCOC(=O)Nc1ccc(OCc2ccc(F)c(F)c2)cc1 | > 50 µM | 260 nM
3 | Cc1ncc([N+](=O)[O-])n1CCOC(=O)Nc1ccc(OCc2ccc(C#N)cc2)cc1 | > 50 µM | 260 nM
4 | Cc1ncc([N+](=O)[O-])n1CCOC(=O)Nc1ccc(OCc2ccc(F)cc2)cc1 | > 50 µM | 80 nM
5 | Cc1ncc([N+](=O)[O-])n1CCOC(=O)Nc1ccc(OCc2ccc(C(F)(F)F)cc2)cc1 | > 50 µM | 240 nM
6 | Cc1ncc([N+](=O)[O-])n1CCO [METRONIDAZOLE] |  | 1780 nM
